# Values of other authors in patent US9227980B2, “Methods for the purification of cucurbituril” (CAMBRIDGE ENTERPRISE LIMITED, priority 2009, dated 2016).
row,SMILES,solubility in water (qualitative)
1,O=C1N2CN3C(=O)N4CN5C(=O)N6CN7C(=O)N8CN9C(=O)N%10CN1C1C2N2CN%11C(=O)N(CN%12C(=O)N(CN%13C(=O)N(CN%14C(=O)N(CN1C2=O)C%10C9%14)C8C7%13)C6C5%12)C4C3%11 (centres unmarked) [CB[5]],soluble in water
2,O=C1N2CN3C(=O)N4CN5C(=O)N6CN7C(=O)N8CN9C(=O)N%10CN%11C(=O)N%12CN1C1C2N2CN%13C(=O)N(CN%14C(=O)N(CN%15C(=O)N(CN%16C(=O)N(CN%17C(=O)N(CN1C2=O)C%12C%11%17)C%10C9%16)C8C7%15)C6C5%14)C4C3%13 (centres unmarked) [CB[6]],are not
